Legend:
Type in all cases: functional
[1] = system: Mycobacterium tuberculosis; assay: Antimycobacterial activity against clinical isolates of multidrug resistant/extensively drug resistant Mycobacterium tuberculosis Praha 1 after 14 days by micromethod; settings: Praha 1, 336 h
[2] = system: Mycobacterium tuberculosis; assay: Antimycobacterial activity against clinical isolates of multidrug resistant/extensively drug resistant Mycobacterium tuberculosis Praha 1 after 21 days by micromethod; settings: Praha 1, 504 h
[3] = system: Mycobacterium tuberculosis; assay: Antimycobacterial activity against clinical isolates of multidrug resistant/extensively drug resistant Mycobacterium tuberculosis Praha 4 after 14 days by micromethod; settings: Praha 4, 336 h
[4] = system: Mycobacterium tuberculosis; assay: Antimycobacterial activity against clinical isolates of multidrug resistant/extensively drug resistant Mycobacterium tuberculosis Praha 4 after 21 days by micromethod; settings: Praha 4, 504 h
[5] = system: Mycobacterium tuberculosis; assay: Antimycobacterial activity against clinical isolates of multidrug resistant/extensively drug resistant Mycobacterium tuberculosis Praha 131 after 14 days by micromethod; settings: Praha 131, 336 h
[6] = system: Mycobacterium tuberculosis; assay: Antimycobacterial activity against clinical isolates of multidrug resistant/extensively drug resistant Mycobacterium tuberculosis Praha 131 after 21 days by micromethod; settings: Praha 131, 504 h
[7] = system: Mycobacterium tuberculosis; assay: Antimycobacterial activity against clinical isolates of multidrug resistant/extensively drug resistant Mycobacterium tuberculosis 9449/2007 after 14 days by micromethod; settings: 9449/2007, 336 h
[8] = system: Mycobacterium tuberculosis; assay: Antimycobacterial activity against clinical isolates of multidrug resistant/extensively drug resistant Mycobacterium tuberculosis 9449/2007 after 21 days by micromethod; settings: 9449/2007, 504 h
[9] = system: Mycobacterium tuberculosis; assay: Antimycobacterial activity against clinical isolates of multidrug resistant/extensively drug resistant Mycobacterium tuberculosis 234/2005 after 14 days by micromethod; settings: 234/2005, 336 h
[10] = system: Mycobacterium tuberculosis; assay: Antimycobacterial activity against clinical isolates of multidrug resistant/extensively drug resistant Mycobacterium tuberculosis 234/2005 after 21 days by micromethod; settings: 234/2005, 504 h
[11] = system: Mycobacterium tuberculosis; assay: Antimycobacterial activity against clinical isolates of multidrug resistant/extensively drug resistant Mycobacterium tuberculosis 7357/1998 after 14 days by micromethod; settings: 7357/1998, 336 h
[12] = system: Mycobacterium tuberculosis; assay: Antimycobacterial activity against clinical isolates of multidrug resistant/extensively drug resistant Mycobacterium tuberculosis 7357/1998 after 21 days by micromethod; settings: 7357/1998, 504 h
[13] = system: Mycobacterium tuberculosis; assay: Antimycobacterial activity against clinical isolates of multidrug resistant/extensively drug resistant Mycobacterium tuberculosis 8666/2010 after 14 days by micromethod; settings: 8666/2010, 336 h
[14] = system: Mycobacterium tuberculosis; assay: Antimycobacterial activity against clinical isolates of multidrug resistant/extensively drug resistant Mycobacterium tuberculosis 8666/2010 after 21 days by micromethod; settings: 8666/2010, 504 h

Measured: MIC

COc1cccc(-n2nnnc2SCn2nnc(-c3cc([N+](=O)[O-])cc([N+](=O)[O-])c3)n2)c1
0.06 µM: [8]
not listed: [13] | [14]
0.03 µM: all other assays above

O=[N+]([O-])c1cc(-c2nnn(Cc3ccccc3)n2)cc([N+](=O)[O-])c1
not listed: [13] | [14]
1 µM: all other assays above

O=[N+]([O-])c1cc(-c2nnn(Cc3cccc(F)c3)n2)cc([N+](=O)[O-])c1
1 µM: all assays above

O=[N+]([O-])c1cc(-c2nnn(CCCCSc3nnnn3-c3ccc(Br)cc3)n2)cc([N+](=O)[O-])c1
0.5 µM: [8]
not listed: [13] | [14]
0.25 µM: all other assays above

O=[N+]([O-])c1cc(-c2nnn(CSc3nnnn3-c3ccc(Br)cc3)n2)cc([N+](=O)[O-])c1
not listed: [13] | [14]
0.03 µM: all other assays above

O=[N+]([O-])c1cc(-c2nnn(CSc3nnnn3-c3ccc(Cl)cc3)n2)cc([N+](=O)[O-])c1
0.06 µM: [2] | [10]
not listed: [13] | [14]
0.03 µM: all other assays above

O=[N+]([O-])c1cc(-c2nnn(CSc3nnnn3-c3ccc(Cl)c(Cl)c3)n2)cc([N+](=O)[O-])c1
not listed: [13] | [14]
0.03 µM: all other assays above

O=[N+]([O-])c1cc(-c2nnn(Cc3ccc(F)cc3)n2)cc([N+](=O)[O-])c1
0.25 µM: [7]
1 µM: [1] | [2] | [4] | [6] | [10]
0.5 µM: all other assays above

COc1ccc(Cn2nnc(-c3cc([N+](=O)[O-])cc([N+](=O)[O-])c3)n2)cc1
0.06 µM: [10]
0.03 µM: all other assays above

O=[N+]([O-])c1cc(-c2nnn(CCCSc3nnnn3-c3ccc(Br)cc3)n2)cc([N+](=O)[O-])c1
not listed: [13] | [14]
0.25 µM: all other assays above

O=[N+]([O-])c1cc(-c2nnn(Cc3cccc(Br)c3)n2)cc([N+](=O)[O-])c1
1 µM: [4] | [6]
0.25 µM: [7] | [9] | [13]
0.5 µM: all other assays above

Cc1ccc(Cn2nnc(-c3cc([N+](=O)[O-])cc([N+](=O)[O-])c3)n2)cc1
0.25 µM: [2]
0.12 µM: all other assays above
